The target in the test is T1, recombinant human Flag-tagged PARP7 (amino acids 456-657) (Homo sapiens, UniProt Q7Z3E1).
T1 construct: recombinant human Flag-tagged PARP7 (amino acids 456-657)
T1 sequence (Q7Z3E1 456-657): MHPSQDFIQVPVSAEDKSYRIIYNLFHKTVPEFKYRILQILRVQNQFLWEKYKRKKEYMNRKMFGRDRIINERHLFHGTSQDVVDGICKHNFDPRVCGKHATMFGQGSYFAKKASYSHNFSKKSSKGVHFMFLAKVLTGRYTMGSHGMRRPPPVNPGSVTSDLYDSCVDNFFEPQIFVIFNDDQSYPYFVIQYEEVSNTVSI
Kind of test: PARP7 biochemical DELFIA assay (auto-MARylation). The conditions noted are these: DELFIA readout, IC50 class. A digest of the protocol:
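Readout is DELFIA time-resolved Eu fluorescence (Ex337 nm, Em620 nm) of biotin-ADP-ribose on immobilised Flag-tagged PARP7 456-657. Enzyme (12.5-37.5 nM as added) sat 30 min with compound before biotin-NAD+ (15 μM solution, pH 7.5 HEPES buffer) started 2-3 h room-temperature self-modification, stopped with excess NAD+.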
By IC50 is commonly meant the concentration that gives 50% inhibition. For `CC(OCCCC(=O)N1CCN(c2ncc(C(F)(F)F)cn2)CC1)c1cc(Cl)cc2c(=O)[nH]ncc12` (single isomer, unassigned) [Compound 175, 7-chloro-5-(1-(4-oxo-4-(4-(5-(trifluoromethyl)pyrimidin-2-yl)piperazin-1-yl)butoxy)ethyl)phthalazin-1(2H)-one], the IC50 is at most 0.1 µM.
As to `CCc1cn(CCOCCC(=O)N2CCN(c3ncc(C(F)(F)F)cn3)CC2)c2cn[nH]c(=O)c12` [Compound 164], the IC50 is at most 0.1 µM.
With `O=C(CCOCCc1cccc2c(=O)[nH]ncc12)N1CCN(c2cnc(C(F)(F)F)cn2)CC1` [Compound 105], the IC50 was at most 0.1 µM.
To `O=C1NC(=O)c2c(CCOCCC(=O)N3CCN(c4ncc(C(F)(F)F)cn4)CC3)cccc21` [Compound 121] belongs 0.1 to 1 µM.
As for `CC(CCOCC(=O)N1CCN(c2ncc(C(F)(F)F)cn2)CC1)n1nc(C(F)(F)F)c2c(=O)[nH]ncc21` (single isomer, unassigned) [Compound 328, 1-(4-(2-oxo-2-(4-(5-(trifluoromethyl)pyrimidin-2-yl)piperazin-1-yl)ethoxy)butan-2-yl)-3-(trifluoromethyl)-1,5-dihydro-4H-pyrazolo[3,4-d]pyridazin-4-one], the IC50 is at most 0.1 µM.
To `CC(CCOCC(=O)N1CCN(c2ccc(C#N)cn2)CC1)n1cc(C(F)(F)F)c2c(=O)[nH]ncc21` (single isomer, unassigned) [Compound 495] belongs 0.1 to 1 µM; to `O=C(CCOCCc1cccc2c(=O)[nH]ncc12)N1CCN(c2ncc(C(F)(F)F)cn2)CC1` [Compound 4], at most 0.1 µM; to `Cc1cnc(N2CCN(C(=O)CCOCC(C)n3nc(C(F)(F)F)c4c(=O)[nH]ncc43)CC2)nc1` (centres unmarked) [Compound 286], at most 0.1 µM.
Consider `[2H]C([2H])(OCCC(=O)N1CCN(c2ncc(C#N)cn2)CC1)C(C)n1nc(C(F)(F)F)c2c(=O)[nH]ncc21` (single isomer, unassigned) [Compound 421, 2-(4-(3-(2-(4-oxo-3-(trifluoromethyl)-4,5-dihydro-1H-pyrazolo[3,4-d]pyridazin-1-yl)propoxy-1,1-d2)propanoyl)piperazin-1-yl)pyrimidine-5-carbonitrile], for which the concentration for half-maximal inhibition (IC50) was at most 0.1 µM.
To `CC1CN(c2ncc(C(F)(F)F)cn2)CCN1C(=O)CCOCCn1ncc2c(=O)[nH]ncc21` (centres unmarked) [Compound 142] belongs at most 0.1 µM; to `CC(CCOCC(=O)N1CCN(c2ncc(C#N)cn2)CC1)n1nc(C(F)(F)F)c2c(=O)[nH]ncc21` (single isomer, unassigned) [Compound 496], at most 0.1 µM.
The value for `CC1CN(c2ccc(C#N)cn2)CCN1C(=O)CCOCCc1cccc2c(=O)[nH]ncc12` (centres unmarked) [Compound 85] was at most 0.1 µM.
To `CC(OCCCC(=O)N1CCN(c2ncc(C(F)(F)F)cn2)CC1)c1cc(F)cc2c(=O)[nH]ncc12` (centres unmarked) [Compound 129] belongs at most 0.1 µM; to `CC(COCCC(=O)N1CCN(c2ncc(C(C)(F)F)cn2)CC1)n1nc(C(F)(F)F)c2c(=O)[nH]ncc21` (single isomer, unassigned) [Compound 485], at most 0.1 µM; to `CC(COCCC(=O)N1CCN(c2ncc(C(F)(F)F)cn2)CC1)c1cc(Cl)cc2c(=O)[nH]ncc12` (centres unmarked) [Compound 162], 0.1 to 1 µM.
As to `CC(COCCC(=O)N1CCN(c2ncc(OC(F)(F)F)cn2)CC1)n1nc(C(F)(F)F)c2c(=O)[nH]ncc21` (single isomer, unassigned) [Compound 387], the IC50 is at most 0.1 µM.
Consider `CC(COCCC(=O)N1CCN(c2ncc(C(C)(F)F)cn2)CC1)n1cc(C(F)(F)F)c2c(=O)[nH]ncc21` (single isomer, unassigned) [Compound 482], for which the IC50 is at most 0.1 µM.
The value for `CC1CN(C(=O)CCOCCn2ncc3c(=O)[nH]ncc32)CCN1c1ncc(C(F)(F)F)cn1` (centres unmarked) [Compound 138] was at most 0.1 µM; that for `O=C(CCOCCn1nc(C(F)(F)F)c2c(=O)[nH]ncc21)N1CCN(c2noc(C(F)(F)F)n2)CC1` [Compound 320] was at most 0.1 µM.
On to `O=C(CCOCCc1cc(F)cc2c(=O)[nH]ncc12)N1CCN(c2ncc(C(F)(F)F)cn2)CC1` [Compound 82], for which the IC50 was at most 0.1 µM.

(Values after patent US20240217968A1, “PHARMACEUTICAL COMPOUND” (DUKE STREET BIO LIMITED, priority 2021, published 2024).)
